Reference: US10473666B2, “Dye compounds” (SFC CO., LTD., priority 2015, dated 2019)

Legend:
[1] = Absorption spectra, emission spectra, molar extinction coefficients and quantum yields of the dye compounds; format: physicochemical
[2] = system: HeLa A431 cells; assay: Photostability: fluorescence intensity over time in stained HeLa A431 cells; format: cell-based; conditions: HeLa A431 cells stained with 1.0 μM dye
Method: The fluorescence intensities of three areas A, B, and C of HeLa A431 cells stained with the compound of Formula 110 (1.0 μM) were measured at 2-sec intervals for 3500 sec.
The fluorescence intensities of four areas A, B, C, and D of HeLa A431 cells stained with the compound of Formula 98 (1.0 μM) were measured at 2-sec intervals for 3500 sec.
The fluorescence intensities of two areas A and B of HeLa A431 cells stained with Cy3B (1.0 μM) were measured at intervals of 2 s for 2000 s.

[3] = Photophysical properties incl. two-photon cross-sections (femtosecond fluorescence measurement technique); format: physicochemical; conditions: for eΦ: Molar extinction coefficient × fluorescence quantum yield: in M-1cm-1
Method: All measurements were performed in DMSO, ethanol, and PBS buffer. Two-photon cross-sections (δ) were measured using a femtosecond (fs) fluorescence measurement technique.

[4] = Absorption spectra, emission spectra, molar extinction coefficients and quantum yields of the dye compounds; format: physicochemical; conditions: Table 1; solvent DMSO
Method: Absorption spectra (λabs), emission spectra (λem), molar extinction coefficients (ε), and quantum yields of the compounds of Formulae 1-7 were measured and the results are shown in Table 1.
Absorption spectra (λabs), emission spectra (λem), molar extinction coefficients, and quantum yields of the compounds of Formulae 44-53 were measured and the results are shown in Table 4.
The products of the two factors (molar extinction coefficient×fluorescence quantum yield) for the inventive dye compounds were much greater than that for the comparative compound.

Quantum yield ([1]; Table 6, solvent DMSO) | ε (molar extinction coefficient) ([1]; Table 6, solvent DMSO) | λabs ([1]; Table 6, solvent DMSO) [nm] | λem ([1]; Table 6, solvent DMSO) [nm] | Quantum yield ([1]; Table 6, solvent EtOH) | ε (molar extinction coefficient) ([1]; Table 6, solvent EtOH) | λabs ([1]; Table 6, solvent EtOH) [nm] | λem ([1]; Table 6, solvent EtOH) [nm] | Quantum yield ([1]; Table 6, solvent PBS) | ε (molar extinction coefficient) ([1]; Table 6, solvent PBS) | λabs ([1]; Table 6, solvent PBS) [nm] | λem ([1]; Table 6, solvent PBS) [nm] | Structure (SMILES) | further results
0.70 | 40,000 M^−1cm^−1 | 629 | 664 | 0.52 | 50,000 M^−1cm^−1 | 628 | 659 | 0.29 | 37,000 M^−1cm^−1 | 624 | 655 | CC1=CC(C)(C)N2CCCc3c4c(cc1c32)C=C1C2=[N+](CCC1O4)c1ccc3ccccc3c1C2(C)C (centres unmarked) [Formula 107] | 
 |  |  |  |  |  |  |  |  |  |  |  | CC1(C)C2=C3C=C4C5=[N+](CCC4OC3CCN2c2ccccc21)c1ccccc1C5(C)C (centres unmarked) [Cy3B, reference compound] | photostability [2]: poor photostability; change of fluorescence intensity over time ([2]; measured at intervals of 2 s for 2000 s): greatly reduced for 1500 s
0.70 | 54,000 M^−1cm^−1 | 584 | 630 | 0.87 | 66,000 M^−1cm^−1 | 585 | 623 | 0.61 | 49,000 M^−1cm^−1 | 578 | 619 | C1=C2c3sc4ccccc4[n+]3CCC2Oc2c1cc1c3c2CCCN3CCC1 (centres unmarked) [Formula 101] | d: Peak two-photon cross-section ([3]; Buffer (PBS buffer)): 89 10^−50 cm^4s per photon (GM); dΦ: Two-photon action cross-section ([3]; Buffer (PBS buffer)): 54 GM; Φ: Fluorescence quantum yield ([3]; Buffer (PBS buffer)): 0.61; λ^(2)max^abs: Maximum wavelength in two-photon absorption spectrum ([3]; Buffer (PBS buffer)): 740 nm; λmax^fl: Maximum wavelength in single-photon emission spectrum ([3]; Buffer (PBS buffer)): 619 nm; eΦ: Molar extinction coefficient × fluorescence quantum yield ([3]; Buffer (PBS buffer)): 29890; Φ: Fluorescence quantum yield ([3]; DMSO): 0.70; λmax^fl: Maximum wavelength in single-photon emission spectrum ([3]; DMSO): 630 nm; dΦ: Two-photon action cross-section ([3]; EtOH): 54 GM; λ^(2)max^abs: Maximum wavelength in two-photon absorption spectrum ([3]; EtOH): 720 nm
0.88 | 108,000 M^−1cm^−1 | 566 | 586 | 0.84 | 70,000 M^−1cm^−1 | 547 | 574 | 0.79 | 48,000 M^−1cm^−1 | 516 | 563 | CC1(C)C2=C3C=C4C=C(C=O)C(=O)C=C4OC3CCN2c2ccccc21 (centres unmarked) [Formula 103] | 
 |  |  |  |  |  |  |  |  |  |  |  | CC[N+]1=C(/C=C/C=C2/N(CCCCCC(=O)O)c3ccccc3C2(C)C)C(C)(C)c2ccccc21 [Comparative, reference compound] | Q.Y. (quantum yield) ([1]; Table 1, solvent not given): 0.04; ε (molar extinction coefficient) ([1]; Table 1, solvent not given): 150,000 M^−1cm^−1; λabs ([1]; Table 1, solvent not given): 548 nm; λem ([1]; Table 1, solvent not given): 562 nm; Quantum yield ([1]; Table 4, solvent not given): 0.04; ε (molar extinction coefficient) ([1]; Table 4, solvent not given): 150,000 M^−1cm^−1; λabs ([1]; Table 4, solvent not given): 548 nm; λem ([1]; Table 4, solvent not given): 562 nm; Quantum yield ([1]; Table 6, solvent not given): 0.04; ε (molar extinction coefficient) ([1]; Table 6, solvent not given): 150,000 M^−1cm^−1; λabs ([1]; Table 6, solvent not given): 548 nm; λem ([1]; Table 6, solvent not given): 562 nm
 |  |  |  |  |  |  |  |  |  |  |  | CC1(CCCCCC(=O)O)C2=[N+](CCC3Oc4c(cc5c6c4CCCN6CCC5)C=C23)c2ccccc21 (centres unmarked) [Formula 2] | Q.Y. (quantum yield) [4]: 0.94; λabs [4]: 597 nm; ε (molar extinction coefficient) ([1]; Table 1, solvent DMSO): 71,500 M^−1cm^−1; λem ([1]; Table 1, solvent DMSO): 623 nm
0.99 | 23,000 M^−1cm^−1 | 570 | 586 | 0.78 | 6,800 M^−1cm^−1 | 557 | 578 | 0.70 | 7,100 M^−1cm^−1 | 524 | 571 | Oc1ccc2c(c1)OC1CC[n+]3c(sc4ccccc43)C1=C2 (centres unmarked) [Formula 102] | d: Peak two-photon cross-section ([3]; Buffer (PBS buffer)): 60 10^−50 cm^4s per photon (GM); dΦ: Two-photon action cross-section ([3]; Buffer (PBS buffer)): 42 GM; Φ: Fluorescence quantum yield ([3]; Buffer (PBS buffer)): 0.70; λ^(2)max^abs: Maximum wavelength in two-photon absorption spectrum ([3]; Buffer (PBS buffer)): 910 nm; λmax^fl: Maximum wavelength in single-photon emission spectrum ([3]; Buffer (PBS buffer)): 571 nm; eΦ: Molar extinction coefficient × fluorescence quantum yield ([3]; Buffer (PBS buffer)): 4970; Φ: Fluorescence quantum yield ([3]; DMSO): 1.00; λmax^fl: Maximum wavelength in single-photon emission spectrum ([3]; DMSO): 586 nm; dΦ: Two-photon action cross-section ([3]; EtOH): 7.6 GM; λ^(2)max^abs: Maximum wavelength in two-photon absorption spectrum ([3]; EtOH): 750 nm
 |  |  |  |  |  |  |  |  |  |  |  | CN(CCCCCC(=O)O)c1ccc2c(c1)OC1CC[N+]3=C(C1=C2)C(C)(C)c1cc(S(=O)(=O)CC(S(=O)(=O)[O-])S(=O)(=O)O)ccc13 (centres unmarked) [Formula 4] | Q.Y. (quantum yield) [4]: 0.81; λabs [4]: 584 nm; ε (molar extinction coefficient) ([1]; Table 1, solvent DMSO): 76,000 M^−1cm^−1; λem ([1]; Table 1, solvent DMSO): 614 nm
 |  |  |  |  |  |  |  |  |  |  |  | CC1(C)CCN(CCCCCC(=O)O)c2ccc3c(c21)OC1CC[N+]2=C(C1=C3)C(C)(C)c1ccccc12 (centres unmarked) [Formula 6] | Q.Y. (quantum yield) [4]: 0.72; λabs [4]: 579 nm; ε (molar extinction coefficient) ([1]; Table 1, solvent DMSO): 12,800 M^−1cm^−1; λem ([1]; Table 1, solvent DMSO): 612 nm
0.70 | 37,000 M^−1cm^−1 | 613 | 649 | 0.50 | 44,000 M^−1cm^−1 | 611 | 645 | 0.28 | 35,000 M^−1cm^−1 | 604 | 643 | CC1=CC(C)(C)N2CCCc3c4c(cc1c32)C=C1C2=[N+](CCC1O4)c1ccccc1C2(C)C (centres unmarked) [Formula 105] | 
0.72 | 55,000 M^−1cm^−1 | 620 | 660 | 0.59 | 70,000 M^−1cm^−1 | 620 | 657 | 0.21 | 29,000 M^−1cm^−1 | 616 | 652 | CC1=CC(C)(C)N(CCCCCC(=O)O)c2cc3c(cc21)C=C1C2=[N+](CCC1O3)c1ccc3ccccc3c1C2(C)C (centres unmarked) [Formula 106] | 
0.38 | 52,000 M^−1cm^−1 | 646 | 685 |  |  |  |  | 0.09 | 28,000 M^−1cm^−1 | 559 | 572 | C[n+]1c(/C=C/C2=CC3=CC4=C5N(CCC4OC3=CC2=O)c2ccccc2C5(C)C)sc2ccccc21 (centres unmarked) [Formula 104] | 
 |  |  |  |  |  |  |  |  |  |  |  | CC1(C)C2=C3C=C4C=CC(=O)C=C4OC3CCN2c2ccc(CC(=O)O)cc21 (centres unmarked) [Formula 52] | Quantum yield ([1]; Table 4, solvent PBS): 0.61; λabs ([1]; Table 4, solvent PBS): 541 nm; λem ([1]; Table 4, solvent PBS): 564 nm
0.90 | 65,000 M^−1cm^−1 | 594 | 618 | 0.90 | 75,000 M^−1cm^−1 | 592 | 612 | 0.80 | 54,000 M^−1cm^−1 | 589 | 608 | CC1(C)C2=[N+](CCC3Oc4c(cc5c6c4CCCN6CCC5)C=C23)c2ccccc21 (centres unmarked) [Formula 100] | d: Peak two-photon cross-section ([3]; Buffer (PBS buffer)): 272 10^−50 cm^4s per photon (GM); dΦ: Two-photon action cross-section ([3]; Buffer (PBS buffer)): 177 GM; Φ: Fluorescence quantum yield ([3]; Buffer (PBS buffer)): 0.65; λ^(2)max^abs: Maximum wavelength in two-photon absorption spectrum ([3]; Buffer (PBS buffer)): 740 nm; λmax^fl: Maximum wavelength in single-photon emission spectrum ([3]; Buffer (PBS buffer)): 611 nm; eΦ: Molar extinction coefficient × fluorescence quantum yield ([3]; Buffer (PBS buffer)): 61750; Φ: Fluorescence quantum yield ([3]; DMSO): 0.90; λmax^fl: Maximum wavelength in single-photon emission spectrum ([3]; DMSO): 618 nm; dΦ: Two-photon action cross-section ([3]; EtOH): 114 GM; λ^(2)max^abs: Maximum wavelength in two-photon absorption spectrum ([3]; EtOH): 750 nm
 |  |  |  |  |  |  |  |  |  |  |  | CC1(C)C2=[N+](CCC3Oc4cc5c(cc4C=C23)C(CS(=O)(=O)O)=CC(C)(C)N5CCCCCC(=O)O)c2ccc(S(=O)(=O)[O-])cc21 (centres unmarked) [Formula 5] | Q.Y. (quantum yield) [4]: 0.56; λabs [4]: 617 nm; ε (molar extinction coefficient) ([1]; Table 1, solvent DMSO): 65,000 M^−1cm^−1; λem ([1]; Table 1, solvent DMSO): 659 nm
 |  |  |  |  |  |  |  |  |  |  |  | CC1(C)C2=C3C=C4C=C(C(=O)O)C(=O)C=C4OC3CCN2c2ccc(S(=O)(=O)O)cc21 (centres unmarked) [Formula 53] | Quantum yield ([1]; Table 4, solvent DMSO): 0.95; ε (molar extinction coefficient) ([1]; Table 4, solvent DMSO): 33,000 M^−1cm^−1; λabs ([1]; Table 4, solvent DMSO): 546 nm; λem ([1]; Table 4, solvent DMSO): 570 nm
0.65 | 21,000 M^−1cm^−1 | 467 | 563 | 0.52 | 22,000 M^−1cm^−1 | 474 | 558 | 0.42 | 30,000 M^−1cm^−1 | 463 | 558 | COc1ccc2c(c1)OC1CC[N+]3=C(C1=C2)C(C)(C)c1ccccc13 (centres unmarked) [Formula 99] | 
 |  |  |  |  |  |  |  |  |  |  |  | CC1(C)C2=C3C=C4C=C(c5nc6ccc(C(=O)O)cc6s5)C(=O)C=C4OC3CCN2c2ccccc21 (centres unmarked) [Formula 51] | Quantum yield ([1]; Table 4, solvent DMSO): 0.75; ε (molar extinction coefficient) ([1]; Table 4, solvent DMSO): 78,800 M^−1cm^−1; λabs ([1]; Table 4, solvent DMSO): 595 nm; λem ([1]; Table 4, solvent DMSO): 621 nm
 |  |  |  |  |  |  |  |  |  |  |  | CC1(C)CCN(CCCCCC(=O)O)c2cc3c(cc21)C=C1C2=[N+](CCC1O3)c1ccccc1C2(C)C (centres unmarked) [Formula 7] | Q.Y. (quantum yield) [4]: 1.00; λabs [4]: 584 nm; ε (molar extinction coefficient) ([1]; Table 1, solvent DMSO): 60,000 M^−1cm^−1; λem ([1]; Table 1, solvent DMSO): 615 nm
